Results as given in patent US20160368879A1, “PHOTOACID GENERATOR, AND RESIN COMPOSITION FOR PHOTOLITHOGRAPHY” (SAN-APRO LTD., priority 2013, published 2016).

How the values were obtained:
Assay type in all cases: physicochemical
[1] = Molar extinction coefficient of i-line (365 nm), UV-visible absorbance in acetonitrile; details: 0.25 mmol/L in acetonitrile, cell length 1 cm
Experimental: The synthesized photoacid generator was diluted to 0.25 mmol/L with acetonitrile, and using an ultraviolet-visible spectrophotometer (UV-2550 available from SHIMADZU CORPORATION), the absorbance in a range of 200 nm to 500 nm was measured with a cell having an optical path length (a cell length) of 1 cm. The molar extinction coefficient of i-line (365 nm) (ε365) was calculated from the following equation.
[In the equation, […] represents the absorbance at 365 nm.]

[2] = Thermal decomposition temperature (TG/DTA, 2% weight reduction); details: point of 2% weight reduction; 10° C./minute from 30° C. to 500° C.; nitrogen atmosphere
Experimental: The synthesized photoacid generator was measured for the change in weight under a temperature increasing condition of 10° C./minute from 30° C. to 500° C. under a nitrogen atmosphere using a thermal gravimetric/differential thermal analyzer (TG/DTA 6200, available from Seiko Instruments Inc.), and a point where the weight was reduced by 2% was defined as the thermal decomposition temperature.

[3] = Solvent solubility (butyl acetate, toluene or PGMEA); details: 25° C.
Experimental: In a test tube, 0.1 g of the synthesized photoacid generator was placed, and an organic solvent (butyl acetate, toluene or PGMEA) was added thereto in 0.2 g portions under a condition where the temperature was adjusted to 25° C. until the photoacid generator was completely dissolved. In this connection, in the case where the photoacid generator was not completely dissolved even when 20 g of the solvent was added, the photoacid generator was evaluated as one that was not dissolved.

Compound	Molar extinction coefficient [1]	Thermal decomposition temperature [2]	Solvent solubility PGMEA [3]	Solvent solubility Butyl acetate [3]	Solvent solubility Toluene [3]
C[Si](C)(C)c1ccc2c3c(cccc13)C(=O)N(OS(=O)(=O)c1c(F)c(F)c(F)c(F)c1F)C2=O [Example A-38, 4-trimethylsilyl-1,8-naphthalimide pentafluorobenzenesulfonate]	5500 L/mol/cm	241 °C	5.5 wt %	5.5 wt %	6 wt %
O=C1c2cccc3c(Cl)ccc(c23)C(=O)N1OS(=O)(=O)c1c(F)c(F)c(F)c(F)c1F [Example A-39, 4-chloro-1,8-naphthalimide pentafluorobenzenesulfonate]	6000 L/mol/cm	225 °C	3.5 wt %	3 wt %	5 wt %
O=C1c2cccc3c(Br)ccc(c23)C(=O)N1OS(=O)(=O)c1c(F)c(F)c(F)c(F)c1F [Example A-40, 4-bromo-1,8-naphthalimide pentafluorobenzenesulfonate]	8500 L/mol/cm	243 °C	3.2 wt %	3 wt %	4.5 wt %
CC(C)Oc1ccc2c3c(cccc13)C(=O)N(OS(=O)(=O)CC13CCC(CC1=O)C3(C)C)C2=O (stereo not drawn) [Example A-41, 4-isopropoxy-1,8-naphthalimide-(+)-10-camphorsulfonate]	16300 L/mol/cm	239 °C	1.8 wt %	1.7 wt %	2 wt %
CCCOc1ccc2c3c(cccc13)C(=O)N(OS(=O)(=O)CC13CCC(CC1=O)C3(C)C)C2=O (stereo not drawn) [Example A-42, 4-n-propoxy-1,8-naphthalimide-(+)-10-camphorsulfonate]	14000 L/mol/cm	245 °C	1.2 wt %	1.5 wt %	2 wt %
CC1(C)C2CCC1(CS(=O)(=O)ON1C(=O)c3cccc4c(OCC(F)(F)C(F)F)ccc(c34)C1=O)C(=O)C2 (stereo not drawn) [Example A-43, 4-(2,2,3,3-tetrafluoro-1-propoxy)-1,8-naphthalimide-(+)-10-camphorsulfonate]	12000 L/mol/cm	231 °C	3 wt %	3 wt %	3.5 wt %
CC1(C)C2CCC1(CS(=O)(=O)ON1C(=O)c3cccc4c(C(=O)Cc5ccccc5)ccc(c34)C1=O)C(=O)C2 (stereo not drawn) [Example A-44, 4-phenylacetyl-1,8-naphthalimide-(+)-10-camphorsulfonate]	3000 L/mol/cm	233 °C	1.8 wt %	1.4 wt %	1.8 wt %
CC1(C)C2CCC1(CS(=O)(=O)ON1C(=O)c3cccc4c(Oc5c(F)c(F)c(F)c(F)c5F)ccc(c34)C1=O)C(=O)C2 (stereo not drawn) [Example A-45, 4-pentafluorophenoxy-1,8-naphthalimide-(+)-10-camphorsulfonate]	12000 L/mol/cm	245 °C	3.5 wt %	4 wt %	4 wt %
CC1(C)C2CCC1(CS(=O)(=O)ON1C(=O)c3cccc4c(Oc5cccc(C(F)(F)F)c5)ccc(c34)C1=O)C(=O)C2 (stereo not drawn) [Example A-46, 4-(3-trifluoromethylphenoxy)-1,8-naphthalimide-(+)-10-camphorsulfonate]	16000 L/mol/cm	243 °C	2.8 wt %	3.5 wt %	3.3 wt %
CC1(C)C2CC[C@@]1(CS(=O)(=O)ON1C(=O)c3cccc4c(Sc5ccccc5)ccc(c34)C1=O)C(=O)C2 [Example A-47, 4-phenylthio-1,8-naphthalimide-(+)-10-camphorsulfonate]	20000 L/mol/cm	244 °C	1.3 wt %	1.8 wt %	1.7 wt %
COc1cc2c3c(cccc3c1)C(=O)N(OS(=O)(=O)C[C@]13CCC(CC1=O)C3(C)C)C2=O [Example A-48, 3-methoxy-1,8-naphthalimide-(+)-10-camphorsulfonate]	7500 L/mol/cm	242 °C	1.5 wt %	2 wt %	1.9 wt %
CCCCC(CC)C(=O)Oc1cc2c3c(cccc3c1)C(=O)N(OS(=O)(=O)CC13CCC(CC1=O)C3(C)C)C2=O (stereo not drawn) [Example A-49, 3-(2-ethylhexanoyloxy)-1,8-naphthalimide-(+)-10-camphorsulfonate]	1500 L/mol/cm	232 °C	8 wt %	11 wt %	9 wt %
CCCC(=O)Oc1cc2c3c(cccc3c1)C(=O)N(OS(=O)(=O)CC13CCC(CC1=O)C3(C)C)C2=O (stereo not drawn) [Example A-50, 3-butyroyloxy-1,8-naphthalimide-(+)-10-camphorsulfonate]	1600 L/mol/cm	237 °C	7.2 wt %	9 wt %	7 wt %
CC1(C)C2CC[C@@]1(CS(=O)(=O)ON1C(=O)c3cccc4cc(OC(=O)c5ccccc5)cc(c34)C1=O)C(=O)C2 [Example A-51, 3-benzoyloxy-1,8-naphthalimide-(+)-10-camphorsulfonate]	1400 L/mol/cm	245 °C	5 wt %	6 wt %	6 wt %
CC1(C)C2CC[C@@]1(CS(=O)(=O)ON1C(=O)c3cccc4cc(OC(=O)c5c(F)c(F)c(F)c(F)c5F)cc(c34)C1=O)C(=O)C2 [Example A-52, 3-pentafluorobenzoyloxy-1,8-naphthalimide-(+)-10-camphorsulfonate]	1300 L/mol/cm	245 °C	7.5 wt %	12 wt %	10 wt %
CC(C)(C)c1cc2c3c(cc(C(C)(C)C)cc3c1)C(=O)N(OS(=O)(=O)CC13CCC(CC1=O)C3(C)C)C2=O (stereo not drawn) [Example A-53, 3,6-di-tert-butyl-1,8-naphthalimide-(+)-10-camphorsulfonate]	6500 L/mol/cm	247 °C	1.7 wt %	2 wt %	1.9 wt %
CC(C)(C)Cc1cc2c3c(cc(CC(C)(C)C)cc3c1)C(=O)N(OS(=O)(=O)CC13CCC(CC1=O)C3(C)C)C2=O (stereo not drawn) [Example A-54, 3,6-dineopentyl-1,8-naphthalimide-(+)-10-camphorsulfonate]	6200 L/mol/cm	252 °C	3.5 wt %	4.5 wt %	2.5 wt %
CC1(C)C2CC[C@@]1(CS(=O)(=O)ON1C(=O)c3cc(C45CC6CC(CC(C6)C4)C5)cc4cc(C56CC7CC(CC(C7)C5)C6)cc(c34)C1=O)C(=O)C2 [Example A-55, 3,6-diadamantyl-1,8-naphthalimide-(+)-10-camphorsulfonate]	6000 L/mol/cm	253 °C	1.7 wt %	2 wt %	2.1 wt %
CC1(C)C2CCC1(CS(=O)(=O)ON1C(=O)c3cccc4c(C(F)(F)C(F)(F)C(F)(F)C(F)(F)F)ccc(c34)C1=O)C(=O)C2 (stereo not drawn) [Example A-56, 4-(nonafluorobutyl)-1,8-naphthalimide-(+)-10-camphorsulfonate]	40 L/mol/cm	241 °C	5 wt %	5 wt %	5.5 wt %
CC1(C)C2CCC1(CS(=O)(=O)ON1C(=O)c3cccc4c(C(F)(F)C(F)(F)C(F)(F)C(F)(F)C(F)(F)C(F)(F)C(F)(F)C(F)(F)F)ccc(c34)C1=O)C(=O)C2 (stereo not drawn) [Example A-57, 4-(heptadecafluoro-n-octyl)-1,8-naphthalimide-(+)-10-camphorsulfonate]	80 L/mol/cm	246 °C	9 wt %	9.5 wt %	10 wt %
